Consider eight compounds from ChEMBL document CHEMBL3822437, “N,N-Bis(glycityl)amines as anti-cancer drugs” (Bioorg Med Chem, 2016).

The nature of experiment [1]: Antiproliferative activity against human SVGp12 cells after 48 hrs by MTT assay. It counts as cell-based. Conditions: SVGp12, 48 h. On the technique in general: Formazan colour is commonly taken as a measure of viable cells.
Experiment [2] relates to HEK293. Description: Antiproliferative activity against HEK293 cells after 48 hrs by MTT assay. Type of experiment: cell-based. The conditions noted are these: Homo sapiens, HEK293, 48 h.
Experiment [3] in a line: cells. Conditions: Homo sapiens, HL-60, 48 h.
Description: Antiproliferative activity against human HL60 cells after 48 hrs by MTT assay
Experiment [4] in a line: Antiproliferative activity against human LN18 cells after 48 hrs by MTT assay. It counts as functional, cell-based. Conditions: LN-18, 48 h.
Experiment [5] in a line: Antiproliferative activity against human THP1 cells after 48 hrs by MTT assay. Type of experiment: functional, cell-based. Conditions: THP-1, 48 h.
Experiment [6] in a line: Selectivity index, ratio of IC50 for human SVGp12 cells to IC50 for human LN18 cells. It counts as functional.
Experiment [7] deals with HEK293. The experiment is described as follows: Selectivity index, ratio of IC50 for HEK293 cells to IC50 for human HL60 cells. It counts as functional.

For the compound `COc1cccc2c1C(=O)c1c(O)c3c(c(O)c1C2=O)C[C@@](O)(C(=O)CO)C[C@@H]3O[C@H]1C[C@H](N)[C@H](O)[C@H](C)O1` [DOXORUBICIN], the 50% inhibitory concentration (IC50) (usually the concentration needed to halve the response being measured) in experiment [1] was found to be 4.21 µM; in experiment [2], 44.4 µM; in experiment [3] it was 5.5 µM; in experiment [4] it was 68.9 µM; in experiment [5] it was 7.19 µM.

Regarding `OC[C@@H](O)[C@@H](O)[C@H](O)CN(CCc1ccccc1)C[C@@H](O)[C@H](O)[C@H](O)CO`, the half-inhibitory concentration (IC50) stood at 222 µM in experiment [1], 230 µM in experiment [2], 121 µM in experiment [3] and 257 µM in experiment [4]. Moreover, the “Ratio IC50” value was found to be 0.864 in experiment [6] and 1.9 in experiment [7].

As to `OC[C@@H](O)[C@H](O)[C@@H](O)CN(CCc1ccccc1)C[C@H](O)[C@@H](O)[C@H](O)CO`, the half-maximal inhibitory concentration (IC50) is 215 µM in experiment [2], 136 µM in experiment [3] and 255 µM in experiment [4]. In addition, the “Ratio IC50” value in experiment [7] was 1.58.

`OC[C@@H](O)[C@@H](O)[C@@H](O)CN(CCc1ccccc1)C[C@H](O)[C@H](O)[C@H](O)CO`: the half-inhibitory concentration (IC50) worked out at 89.4 µM in experiment [3] and 205 µM in experiment [4].

Consider `OC[C@@H](O)[C@@H](O)[C@H](O)[C@@H](O)CN(CCc1ccccc1)C[C@H](O)[C@@H](O)[C@H](O)[C@H](O)CO`, for which the results for the IC50 in experiment [1], in experiment [3] and in experiment [4] were 212 µM, 91.3 µM and 290 µM, respectively. Besides, the “Ratio IC50” value in experiment [6] stood at 0.731.

As for `C[S+](C)[O-]` [DIMETHYL SULFOXIDE], the IC50 in experiment [1] stood at 229 µM; in experiment [2], 232 µM; in experiment [3], 108 µM; in experiment [4] it was 223 µM; in experiment [5], 119 µM. The results for the “Ratio IC50” value in experiment [6] and in experiment [7] were 1.03 and 2.15, respectively.

Regarding `CCCCCCCCCCCCCCCCN(CC[C@@H](O)[C@H](O)[C@H](O)CO)CC[C@@H](O)[C@H](O)[C@H](O)CO`, the half-inhibitory concentration (IC50) amounted to 6.66 µM in experiment [3] and 50.6 µM in experiment [4].

On to `CCCCCCCCCCCCCCCCN(CC[C@H](O)[C@H](O)CO)CC[C@H](O)[C@H](O)CO`, for which the IC50 in experiment [1] is 26.6 µM; in experiment [2], 31.1 µM; in experiment [3], 6.44 µM; in experiment [4] it was 30.5 µM. For the same compound, the “Ratio IC50” value in experiment [6] amounted to 0.872; in experiment [7] it was 4.83.
